Test results from patent US10786522B2, “Compositions that include anthocyanidins and methods of use” (Maqui NewLife S.A., priority 2009, dated 2020).
Marks after values point to notes of the source that are not given here.

How the values were obtained:
Jurkat T cells [1] = experiment: Calcium entry (SOCE) in Jurkat T cells after addition of CaCl2; format: cell-based
Method: To measure calcium entry after 200 seconds, when the levels of calcium returned to the baseline, 0.9 mM of CaCl2 was added, and the fluxes of Ca^2+ were measured as ratio of excitation ratio at 340 and 380 nm, and emission at 509 nm in a spectrofluorimeter during 150 seconds.
4×10^6 FURA 2-AM-loaded Jurkat T cells were incubated in HBSS calcium free medium. The cells were incubated in 50 uM delphinidin or 50 uM delphinidin plus 10 μM BTP-2 and the fluxes of Ca^2+ were measured as ratio of excitation at 340 and 380 nm, and emission at 509 nm, at 37° C. in a spectrofluorimeter (LS55, PerkinElmer).

Human T cells [2] = experiment: INF-γ production in freshly isolated human T cells (ELISA); format: cell-based; conditions: 48 hrs
Method: (§1) The effect of delphinidin on IL-2 and INF-γ production was also assayed on freshly isolated human T cells. Human T cells were isolated from blood of healthy volunteers using Lymphoprep reagent. T cells (1×10^6) in RMPI medium were incubated for 48 hrs at 37° C., in 5% CO2 in the presence of a vehicle control solution; 50 μM delphinidin; 50 μM delphinidin+1 μM BTP-2; 50 μM delphinidin+5 μM BTP-2; 50 μM delphinidin+10 μM BTP-2; 1 μM BTP-2; 5 μM. BTP-2; or 10 μM BTP-2. Then the supernatants were collected and analyzed using commercial ELISA kit (Becton Dickinson, USA) to measure IL-2 and INF-γ production according to the supplier's directions.

Human T cells [3] = experiment: IL-2 production in freshly isolated human T cells (ELISA); format: cell-based; conditions: Table 7, 48 hrs
Method: as §1
We evaluated the effect of a combination of delphinidin and andandrographolide on IL-2 production in both freshly harvested human T cells and the Jurkat cell line. Andrographolide was prepared according to the method described in Example 4. Human T cells were isolated from blood of healthy volunteers using Lymphoprep reagent. T cells (1×10^6) in RMPI medium were incubated for 48 hrs at 37° C., in 5% CO2 in the presence of a vehicle control solution; 5 nM andrographolide; 50 μM delphinidin; or 5 nM andrographolide plus 50 μM delphinidin. Then the supernatants were collected and analyzed using commercial ELISA kit (Becton Dickinson, USA) to measure IL-2 production according to the supplier's directions.

Sprague Dawley rats = experiment: Acute plantar inflammation model (carragenin) in rats; format: in vivo, rat; conditions: 1% carragenin, 6 hrs; anthocyanidins 35 mg/kg, diclofenac 2 mg/kg
Method: We assayed the effect of anthocyanidins on inflammation in vivo in an acute plantar inflammation model. Inflammation was induced in Sprague Dawley rats (200 g) using 1% carragenin (Sigma-Aldrich). The animals were treated with 35 mg/kg of anthocyanidins rich in […] (prepared according to the method descirbed in Example 1) or with diclofenac (2 mg/kg). The diameter of the treated legs was measured with a digital caliper over 6 hrs.

PPAR-γ = experiment: PPAR-γ-Luc reporter assay in HL-60 cells; format: cell-based, Human; conditions: control substances, 12 h, concentration not given
Method: We examined the effect of delphindin-rich anthocyanidins on PPAR-γ activation. HL-60 cells in IMDM medium were transfected with the reporter vectors PPAR-γ-Luc (5 μg) (Panomics) and TK-RL (1 μg) (Promega) using Fugene 6 reagent (Roche), and cultured for 24 hr. Then, the cells were incubated for 12 h in 0.175, 1.75, or 17.5 μg/ml of delphindin-rich anthocyanidins, phorbol myristate acetate (PMA), 15-deoxi-d 12,14-prostaglandin J2 (PGj2), or tumor necrosis factor alpha (TNFα) as controls. Luciferase activity was measured using the Dual-Luciferase Reporter Assay kit (DLR) from Promega in a luminometer (Luminoskan).

Jurkat T cells [4] = experiment: Calcium release in Jurkat T cells in HBSS calcium free medium; format: cell-based; conditions: 50 or 100 uM U73122 for 10 minutes prior to 50 uM delphinidin
Method: To measure calcium release, 4×10^6 FURA 2-AM-loaded Jurkat T cells were incubated in HBSS calcium free medium as decribed in Example 6. The cells were incubated in 50 uM delphinidin, or in 50 uM delphinidin and 10 μM N-[4-[3,5-bis(trifluoromethyl)-1H-pyrazol-1-yl]phenyl]-4-methyl-1,2,3-thiadiazole-5-carboxamide (BTP-2, a Store-Operated Calcium Entry (SOCE) inhibitor). The release of Ca^2+ was measured as ratio of excitation at 340 and 380 nm, and emission at 509 nm, for 200 seconds, at 37° C., in a spectrofluorimeter (LS55, PerkinElmer).
4×10^6 FURA 2-AM-loaded Jurkat T cells were incubated in HBSS calcium free medium. The cells were then incubated in 50 uM delphinidin and the fluxes of Ca^2+ were measured as ratio of excitation at 340 and 380 nm, and emission at 509 nm, at 37° C. in a spectrofluorimeter (LS55, PerkinElmer).
4×10^6 FURA 2-AM-loaded Jurkat T cells were incubated in HBSS calcium free medium. The cells were then treated with vehicle alone or 50 or 100 uM U73122 for 10 minutes prior to incubation in 50 uM delphinidin. Ca^2+ flux was measured as ratio of excitation at 340 and 380 nm, and emission at 509 nm, at 37° C. in a spectrofluorimeter (LS55, PerkinElmer).

[5] = 1 μM BTP-2, alone or with 50 μM delphinidin
[6] = 5 μM BTP-2, alone or with 50 μM delphinidin
[7] = 10 μM BTP-2, alone or with 50 μM delphinidin

Q: Which “delphinidin-induced calcium influx in the presence of inhibitor (FIG. 2A, 2B)” value (Jurkat T cells [1]; delphinidin 50 μM plus BTP-2 10 μM) does the source give for `Cc1nnsc1C(=O)Nc1ccc(-n2nc(C(F)(F)F)cc2C(F)(F)F)cc1` [BTP-2, N-[4-[3,5-bis(trifluoromethyl)-1H-pyrazol-1-yl]phenyl]-4-methyl-1,2,3-thiadiazole-5-carboxamide] here?
A: reduced

Q: What about the “effect on calcium entry and release, result in words” value (Jurkat T cells [1]; delphinidin 50 μM, BTP-2 10 μM) of the same compound?
A: inhibited the entry, but not the release

Q: What about the “Average INF-γ production” value (Human T cells [2]; [5]) of the same compound?
A: 240 pg/mL

Q: And the “Percentage vs. control (INF-γ)” value (Human T cells [2]; [5])?
A: 64.9%

Q: And the “Average INF-γ production” value (Human T cells [2]; [6])?
A: 390 pg/mL

Q: And the “Percentage vs. control (INF-γ)” value (Human T cells [2]; [6])?
A: 105.4%

Q: What about the “Average INF-γ production” value (Human T cells [2]; [7]) of the same compound?
A: 140 pg/mL

Q: What about the “Percentage vs. control (INF-γ)” value (Human T cells [2]; [7]) of the same compound?
A: 37.8%

Q: And the “Average IL-2 production” value (Human T cells [3]; [5])?
A: 0 pg/mL

Q: And the “Average IL-2 production” value (Human T cells [3]; [6])?
A: 0 pg/mL

Q: And the “Average IL-2 production” value (Human T cells [3]; [7])?
A: 0 pg/mL

Q: Which results are given for `O=C(O)Cc1ccccc1Nc1c(Cl)cccc1Cl` [Diclofenac, diclofenac]?
A: Average ABC0-6 (area under the curve of the diameter of the treated legs) (Sprague Dawley rats): 12.5** mm*hr; Decrease percentage compared to control (ABC0-6) (Sprague Dawley rats): 37.5%

Q: With `CCCCC/C=C/C=C1/C(=O)C=C[C@@H]1C/C=C\CCCC(=O)O` [PGj2, 15-deoxi-d 12,14-prostaglandin J2] as the compound, how does the “Average percentage activity of control [PPAR-γ-Luc/TK-RL] ± SD” value (PPAR-γ) read?
A: 256.8 ± 126.9%

Q: How did the “delphinidin induced calcium flux after pretreatment (FIG. 3)” value (Jurkat T cells [4]) turn out when `COc1ccc2c(c1)CC[C@@H]1[C@@H]2CC[C@]2(C)[C@@H](NCCCCCCN3C(=O)C=CC3=O)CC[C@@H]12` [U73122, reference compound] was run?
A: dose-dependent reduction
